Source: patent publication US5747482A, “Methods and compositions to inhibit keratinocyte proliferation” (priority 1996, dated 1998)

Experiments:
Assay type in all cases: cell-based, human
Keratinocytes [1] = assay: Effect on cell differentiation, keratinocytes grown 4 days before gallium maltol, Example 4; conditions: for CELL NUMBER, clear squamous / CELL NUMBER, squamous / CELL NUMBER, proliferative: 3 days after 4 days growth; for CELL NUMBER, clear squamous: control 2.0 ± 0.03%; for CELL NUMBER, squamous: control 13.3 ± 2.6%; for CELL NUMBER, proliferative: control 83.6 ± 3.0%
Method: (§1) Adult human keratinocytes from pooled donor skin were obtained from commercial sources (Cascade Biologics, Portland, Oreg., U.S.A.) and placed in 150 cm^2 bottom area culture flasks using culture medium 154 supplemented with HKGS (about 1%). At 80% confluency, cells were harvested with trypsin and cryopreserved until required.
(§2) Culture flasks (75 cm^2 bottom area) were seeded with keratinocytes at about 2,500 cells per cm^2 as before. After 24 hours, the medium in three (3) flasks were changed to media (154) with the calcium content increased from the normal 0.2 mM to 1.0 mM ("high calcium") plus gallium maltol (GaM) at the following concentrations: 1×10^-5 M, 5×10^-5 M, and 1×10^-4 M. The culture was continued for 7 days when cells were about 75% confluent in the controls (no GaM). Media supplemented as above were changed every 2 days. Finally, media were aspirated and cells rinsed with PBS before exposure to trypsin (0.025%)/EDTA (0.01%). When dislodged, they were collected in centrifuge tubes and the flasks rinsed with PBS:trypsin neutralizing solution (Clonetics, San Diego, Calif., U.S.A.; 1:1 v/v) and added to the cell suspension. The total volume of suspensions was approximately 8 to 10 mL. Aliquots of these suspensions were counted on the hemocytometer in terms of:
(§3) (1) small, light or dark keratinocytes, referred to as "proliferating";
(§4) (2) larger, squamous keratinocytes, with intracellular structural elements; and
(§5) (3) clear squamous cells without structural elements.
In a subsequent experiment, flasks of keratinocytes were grown in medium 154 for 4 days after seeding, before switching to the high calcium medium without gallium maltol (control) or with gallium maltol at final concentrations of 5×10^-5, 1×10^-5 or 1×10^-6 M. There were 2 or 3 flasks in each group. Culture was continued for another 3 days, when the keratinocytes were harvested and counted as before.

Keratinocytes [2] = assay: Effect on cell differentiation and cell number, gallium maltol added 24 hours after seeding, Example 4; conditions: 7 days, high calcium
Method: as §1, §2, §3, §4, §5
After counting, each suspension was centrifuged, the supernatant discarded, and the cell pellet resuspended in 0.5 to 1.0 mL of 1% SDS:2.5 mM DTT. After 15 minutes at 37° C., aliquots of these suspensions were counted for insoluble cornified envelops. The volumes were noted.

keratinocyte cells = conditions: keratinocytes, 48 h, 500 µM
Method: as §1
Culture was renewed for a further 24 hours. At this time, media were removed and discarded, and the cells lysed with 200 μL/well of the solution provided in the Cell Death Detection Kit ELISA Plus (Boehringer Mannheim Biochemicals, Indianapolis, Ind., U.S.A., catalogue number 1774425). Aliquots of the lysate (20 μL) from each of 2 or 3 wells were assayed for nucleosomal enrichment following the kit instructions.
The evaluation of apoptosis of keratinocytes was conducted to determine the relative affect on apoptosis achieved by gallium maltol, gallium nitrate and maltol. Specifically, keratinocyte cells were seeded in 12 well plates seed using culture medium 154. Cultures were continued for 4 days and the medium was changed to medium 154 with 1.2 mM Ca^+2 either without supplement or with one of the following supplements:
1. gallium maltol at a final concentration of 5×10^-4 M;
2. gallium nitrate at a final concentration of 5×10^-4 M;
3. maltol at a concentration of 15×10^-4 M; and
4. CAM at a concentration of 1×10^-5 M.
Three (3) wells were used in each group. The final amount of medium was 300 μL in each well. Culture was continued for 2 days. Bars represent absorbance at 405 nm minus the absorbance at 492 nm.

Cc1occc(=O)c1[O-].Cc1occc(=O)c1[O-].Cc1occc(=O)c1[O-].[Ga+3] [gallium maltol, neutral 3:1 gallium complex of maltol]
CELL NUMBER, clear squamous (Keratinocytes [1]; 1×10^-5 M): 3.1 ± 0.06%
CELL NUMBER, squamous (Keratinocytes [1]; 1×10^-5 M): 16.0 ± 3.1%
CELL NUMBER, proliferative (Keratinocytes [1]; 1×10^-5 M): 80.8 ± 2.0%
differences in cell differentiation as determined by the proportion of cells (Keratinocytes [1]; 5×10^-5 M, 1×10^-5 M (1×10^-6 M not counted), 4 days growth, then 3 days exposure): no significant differences were observed in cell differentiation
CELL NUMBER, clear squamous (Keratinocytes [1]; 5×10^-5 M): 3.5 ± 0.06%
CELL NUMBER, squamous (Keratinocytes [1]; 5×10^-5 M): 14.0 ± 1.1%
CELL NUMBER, proliferative (Keratinocytes [1]; 5×10^-5 M): 82.4 ± 0.91%
anti-proliferative effect (Keratinocytes [2]; 1×10^-4 M): so great that the number of cells was too small for accurate counting
number of proliferative, squamous and cornified cells vs control (Keratinocytes [2]; 1×10^-5 M): for all intents and purposes, unchanged compared to control
increase in the number of cornified envelopes vs control (Keratinocytes [2]; 5×10^-5 M): tenfold
decrease in total number of cells (Keratinocytes [2]; 5×10^-5 M, vs control, 50 µM): about 90%
number of squamous cells vs control (Keratinocytes [2]; 5×10^-5 M, FIG. 4): increase in the number of squamous cells
proportion of proliferative cells vs control (Keratinocytes [2]; 5×10^-5 M, FIG. 4): moderate decrease in the proportion of proliferative cells
CELL NUMBER, cornified (Keratinocytes [2]; 10^-5 M, control 0.26 ± 0.01%): 0.39 ± 0.17%
CELL NUMBER, clear squamous (Keratinocytes [2]; 10^-5 M, control 1.8 ± 0.9%): 2.9 ± 0.15%
CELL NUMBER, squamous (Keratinocytes [2]; 10^-5 M, control 12.7 ± 2.7%): 13.5 ± 0.65%
CELL NUMBER, proliferative (Keratinocytes [2]; 10^-5 M, control 85.3 ± 2.7%): 83.6 ± 0.64%
concentration at which inhibition of keratinocyte proliferation is achieved (Keratinocytes [2]): greater than 1×10^-5 M
concentration enhancing cell differentiation of keratinocytes (Keratinocytes [2]): greater than 1×10^-5 M
increase in apoptosis compared to control (keratinocyte cells): ~19 fold
